Test results as given in the supplement of paper PMC11451515.

How the values were obtained:
Conditions in all cases: 48 h
SEM cells [1] = assay: AUC of viability dose-response curve (% viability x log10 dose units); higher = less sensitive
In short: (§1)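 Area under the curve was integrated by trapezoidal rule from a log-logistic fit of normalised viability, with curves exceeding full viability scaled and quality-control failures removed. The fit had four parameters over log10 doses. Viability came from CellTiter-Glo One luminescence, normalised per plate to DMSO and cell-free wells, after leukemia cells adapted to each medium (500 or 1000 cells/well, 1536-well plates) were exposed to library compounds in DMSO for 48 h at 37°C. The 11 threefold doses ran from 47 μM to 0.79 nM.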

P12-Ichikawa [2] = assay: as above
In short: as §1

NOMO1 [3] = assay: as above
In short: as §1

SEM cells [4] = assay: cell viability relative to DMSO control; higher = less cytotoxic
In short: (§2)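 Library compounds in DMSO were pin-dosed in an 11-point threefold series (47 μM to 0.79 nM) onto leukemia cells in 1536-well plates (5 μl). Plates held 500 cells/well of NOMO1 or SEM or 1000 cells/well of P12-Ichikawa, each adapted for at least four passages in each medium. Luminescence was read with CellTiter-Glo One after 48 h at 37°C. Viability means the per-plate percentage relative to DMSO wells, using cell-free wells as background.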

P12-Ichikawa [5] = assay: as above
In short: as §2

NOMO1 [6] = assay: as above
In short: as §2

CNNCc1ccc(C(=O)NC(C)C)cc1
AUC of viability dose-response curve
Conditions	NOMO1 [3]	P12-Ichikawa [2]	SEM cells [1]
HPLM + 10% dialyzed FBS	465	467	434
RPMI 5 mM glucose + 10% FBS	468	464	452
RPMI 5 mM glucose + 10% dialyzed FBS	468	466	448

cell viability [%], HPLM + 10% dialyzed FBS
Conditions	P12-Ichikawa [5]	SEM cells [4]
0.000781 µM	118	102
0.00234 µM	123	118
0.00702 µM	125	130
0.0211 µM	136	117
0.0632 µM	124	139
0.19 µM	137	133
0.569 µM	135	107
1.71 µM	144	132
5.12 µM	133	83.7
15.4 µM	119	92.1
46.1 µM	99.7	40.7

O=[S+]([O-])(F)Cc1ccccc1
AUC of viability dose-response curve
Conditions	NOMO1 [3]	P12-Ichikawa [2]	SEM cells [1]
HPLM + 10% dialyzed FBS	434	446	455
RPMI 5 mM glucose + 10% FBS	468	448	440
RPMI 5 mM glucose + 10% dialyzed FBS	476	442	446

SEM cells [4], HPLM + 10% dialyzed FBS
Conditions	cell viability [%]
0.000781 µM	120
0.00234 µM	122
0.00702 µM	134
0.0211 µM	122
0.0632 µM	125
0.19 µM	50.5
0.569 µM	109
1.71 µM	133
5.12 µM	114
15.4 µM	115
46.1 µM	112

CN1C(=O)CCS(=O)(=O)C1c1ccc(Cl)cc1 (stereo unspecified)
AUC of viability dose-response curve
Conditions	HPLM + 10% dialyzed FBS	RPMI 5 mM glucose + 10% FBS	RPMI 5 mM glucose + 10% dialyzed FBS
NOMO1 [3]	447	472	459
P12-Ichikawa [2]	452	448	442

CNC1CCCN(c2c(F)cc3c(=O)c(C(=O)O)cn(C4CC4)c3c2OC)C1 (stereo unspecified)
AUC of viability dose-response curve
Conditions	HPLM + 10% dialyzed FBS	RPMI 5 mM glucose + 10% FBS	RPMI 5 mM glucose + 10% dialyzed FBS
P12-Ichikawa [2]	432	441	443
SEM cells [1]	462	445	456

SEM cells [4], HPLM + 10% dialyzed FBS
Conditions	cell viability [%]
0.000781 µM	120
0.00234 µM	123
0.00702 µM	131
0.0211 µM	139
0.0632 µM	134
0.19 µM	125
0.569 µM	133
1.71 µM	122
5.12 µM	115
15.4 µM	117
46.1 µM	113

Nc1nc(N)nc(-c2cc(Cl)ccc2Cl)n1.O=C(O)/C=C\C(=O)O
AUC of viability dose-response curve
Conditions	NOMO1 [3]	P12-Ichikawa [2]	SEM cells [1]
HPLM + 10% dialyzed FBS	472	447	447
RPMI 5 mM glucose + 10% FBS	453	460	432
RPMI 5 mM glucose + 10% dialyzed FBS	461	457	459

O=C1c2c(O)cc(O)cc2O[C@H](c2cc(O)c(O)c(O)c2)[C@H]1O
AUC of viability dose-response curve
Conditions	NOMO1 [3]	P12-Ichikawa [2]	SEM cells [1]
HPLM + 10% dialyzed FBS	430	456	426
RPMI 5 mM glucose + 10% FBS	461	452	410
RPMI 5 mM glucose + 10% dialyzed FBS	453	455	420

NCCS(=O)(=O)O
AUC of viability dose-response curve
Conditions	NOMO1 [3]	P12-Ichikawa [2]	SEM cells [1]
HPLM + 10% dialyzed FBS	441	469	463
RPMI 5 mM glucose + 10% FBS	455	458	471
RPMI 5 mM glucose + 10% dialyzed FBS	449	463	468

CCCCCCCCCCCCCCCC(=O)O[C@@H]1[C@@H](O)[C@@H](O)[C@@H]([C@H](NC(=O)[C@@H]2C[C@@H](CCC)CN2C)[C@H](C)Cl)O[C@@H]1SC.Cl
AUC of viability dose-response curve
Conditions	NOMO1 [3]	P12-Ichikawa [2]	SEM cells [1]
HPLM + 10% dialyzed FBS	426	452	470
RPMI 5 mM glucose + 10% FBS	423	456	469
RPMI 5 mM glucose + 10% dialyzed FBS	425	442	465

O=C(NCCCNc1nc(Nc2cccc(NC(=O)N3CCCC3)c2)ncc1I)c1cccs1
AUC of viability dose-response curve
Conditions	HPLM + 10% dialyzed FBS	RPMI 5 mM glucose + 10% FBS	RPMI 5 mM glucose + 10% dialyzed FBS
NOMO1 [3]	375	381	384
P12-Ichikawa [2]	407	400	401

cell viability [%]
Conditions	NOMO1 [6]	P12-Ichikawa [5]	SEM cells [4]
HPLM + 10% dialyzed FBS, 0.000781 µM	81.8	91.6	55.6
HPLM + 10% dialyzed FBS, 0.00234 µM	91	91.9	91.1
HPLM + 10% dialyzed FBS, 0.00702 µM	88.4	93	102
HPLM + 10% dialyzed FBS, 0.0211 µM	79.3	90.9	75.8
HPLM + 10% dialyzed FBS, 0.0632 µM	80.9	87.3	46.5
HPLM + 10% dialyzed FBS, 0.19 µM	72	84	60.8
HPLM + 10% dialyzed FBS, 0.569 µM	91.5	81.3	50.4
HPLM + 10% dialyzed FBS, 1.71 µM	51.5	72.5	27.2
HPLM + 10% dialyzed FBS, 5.12 µM	67.9	84.9	32.9
HPLM + 10% dialyzed FBS, 15.4 µM	84.3	76.1	76.7
HPLM + 10% dialyzed FBS, 46.1 µM	78.7	85.1	70.6
RPMI 5 mM glucose + 10% FBS, 0.000781 µM	80.4	83.2	74
RPMI 5 mM glucose + 10% FBS, 0.00234 µM	89.7	91	124
RPMI 5 mM glucose + 10% FBS, 0.00702 µM	78	87.6	124
RPMI 5 mM glucose + 10% FBS, 0.0211 µM	81.5	90	111
RPMI 5 mM glucose + 10% FBS, 0.0632 µM	76.1	85.9	68.7
RPMI 5 mM glucose + 10% FBS, 0.19 µM	76.9	90.4	85.1
RPMI 5 mM glucose + 10% FBS, 0.569 µM	80	94.2	33.1
RPMI 5 mM glucose + 10% FBS, 1.71 µM	65.9	50	13.4
RPMI 5 mM glucose + 10% FBS, 5.12 µM	77	84.5	37.5
RPMI 5 mM glucose + 10% FBS, 15.4 µM	83.1	83.7	77.7
RPMI 5 mM glucose + 10% FBS, 46.1 µM	89.9	79.9	68.9
RPMI 5 mM glucose + 10% dialyzed FBS, 0.000781 µM	89.1	88.1	46.5
RPMI 5 mM glucose + 10% dialyzed FBS, 0.00234 µM	89.2	84.6	96.9
RPMI 5 mM glucose + 10% dialyzed FBS, 0.00702 µM	89.3	79.8	87.4
RPMI 5 mM glucose + 10% dialyzed FBS, 0.0211 µM	75	82.6	78.9
RPMI 5 mM glucose + 10% dialyzed FBS, 0.0632 µM	84.6	91.7	36.8
RPMI 5 mM glucose + 10% dialyzed FBS, 0.19 µM	84.4	88.1	64.9
RPMI 5 mM glucose + 10% dialyzed FBS, 0.569 µM	80	84.9	42.6
RPMI 5 mM glucose + 10% dialyzed FBS, 1.71 µM	59.1	81.4	23.9
RPMI 5 mM glucose + 10% dialyzed FBS, 5.12 µM	83.1	80.2	28.4
RPMI 5 mM glucose + 10% dialyzed FBS, 15.4 µM	75.7	85.6	79.6
RPMI 5 mM glucose + 10% dialyzed FBS, 46.1 µM	76.9	72.4	62.6

O=C(/C=C/C=C/c1ccc2c(c1)OCO2)N1CCCCC1
AUC of viability dose-response curve
Conditions	NOMO1 [3]	P12-Ichikawa [2]	SEM cells [1]
HPLM + 10% dialyzed FBS	429	446	466
RPMI 5 mM glucose + 10% FBS	444	463	448
RPMI 5 mM glucose + 10% dialyzed FBS	448	467	456

cell viability [%], SEM cells [4]
Conditions	HPLM + 10% dialyzed FBS	RPMI 5 mM glucose + 10% dialyzed FBS
0.000781 µM	129	114
0.00234 µM	119	129
0.00702 µM	125	103
0.0211 µM	127	157
0.0632 µM	139	146
0.19 µM	128	129
0.569 µM	116	150
1.71 µM	133	131
5.12 µM	132	167
15.4 µM	119	140
46.1 µM	87.1	108
